Data taken from patent US20230131899A1, “INHIBITORS OF MICROBIALLY INDUCED AMYLOID” (Axial Therapeutics, Inc., priority 2020, published 2023).
Like-named read-outs stand apart in the source and are kept apart here.

Target: T1, E. coli CsgA (Escherichia coli, UniProt P28307)
T1 construct: made in house; host or cells: E. coli NEB 3016 slyD::kan, pET11d
Assay: In vitro ThioflavinT assay of CsgA aggregation (CsgA ThT Assay)
Type: biochemical
Conditions: for remaining activity at 25 µM: compound 25 μM; for remaining activity at 100 µM: compound 100 μM
Method in brief: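 Purified C-terminal His-tagged CsgA, monomerised by desalting and 30-kDa filtration, at 2-20 μM with 20-40 μM ThT in 50 mM potassium phosphate pH 7.3, 1% DMSO, compounds 3.125-200 uM; room temperature, fluorescence (ex 438/em 495 nm) read every 15 min. Background-subtracted signal expressed as percent inhibition versus vehicle at 6-6.5 or 8-9 h, or as percent control AUC.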

[1] = read-out: CsgA ThT Assay (2 μM CsgA) % Control Bmax 25 μM, activity range, class symbol, CsgA 2 μM, white plates
[2] = read-out: CsgA ThT Assay (2 μM CsgA) % Control Bmax 25 μM, mean Bmax as percentage of DMSO control, CsgA 2 μM, white plates
[3] = read-out: CsgA ThT Assay (2 μM CsgA) % Control Bmax 100 μM, activity range, class symbol, CsgA 2 μM, white plates
[4] = read-out: CsgA ThT Assay (2 μM CsgA) % Control Bmax 100 μM, mean Bmax as percentage of DMSO control, CsgA 2 μM, white plates
[5] = read-out: CsgA ThT Assay (10 μM CsgA) % Control AUC at 1005 minutes, 25 μM (activity range), CsgA 10 μM, black plates, 1005 minutes, class symbol
[6] = read-out: CsgA ThT Assay (10 μM CsgA) % Control AUC at 1005 minutes, 25 μM, mean AUC as % of DMSO control, CsgA 10 μM, black plates, 1005 minutes
[7] = read-out: CsgA ThT Assay (10 μM CsgA) % Control AUC at 1005 minutes, 100 μM (activity range), CsgA 10 μM, black plates, 1005 minutes, class symbol
[8] = read-out: CsgA ThT Assay (10 μM CsgA) % Control AUC at 1005 minutes, 100 μM, mean AUC as % of DMSO control, CsgA 10 μM, black plates, 1005 minutes

T1 sequence (P28307 23-151): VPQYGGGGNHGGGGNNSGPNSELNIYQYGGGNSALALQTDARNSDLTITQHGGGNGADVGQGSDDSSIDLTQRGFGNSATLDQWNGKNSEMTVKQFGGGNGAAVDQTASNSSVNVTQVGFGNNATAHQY

In the case of `O=C(O)C1CN(CCCO)c2c(-c3cccc(C(F)(F)F)c3)c(Cc3cccc4ccccc34)c(Cl)c(=O)n21` (centres unmarked) [Compound 197, 6-chloro-1-(3-hydroxypropyl)-7-(naphthalen-1-ylmethyl)-5-oxo-8-(3-(trifluoromethyl)phenyl)-1,2,3,5-tetrahydroimidazo[1,2-a]pyridine-3-carboxylic acid], the remaining activity at 25 µM [1] was over 60%, the remaining activity at 25 µM [2] was 86% and the remaining activity at 100 µM [3] was over 60%. For the same compound, the remaining activity at 100 µM [4] was 64%.

`O=C(O)C1CN(CCc2ccccc2)c2c(-c3cccc(C(F)(F)F)c3)c(Cc3cccc4ccccc34)c(Cl)c(=O)n21` (centres unmarked) [Compound 178, 6-chloro-7-(naphthalen-1-ylmethyl)-5-oxo-1-phenethyl-8-(3-(trifluoromethyl)phenyl)-1,2,3,5-tetrahydroimidazo[1,2-a]pyridine-3-carboxylic acid] was tested, and the remaining activity at 25 µM [1] was 31 to 60%, the remaining activity at 25 µM [2] was 57% and the remaining activity at 100 µM [3] was under 10%. For the same compound, the remaining activity at 100 µM [4] was 9%.

Work on `CC1(C(=O)O)CNS(=O)(=O)c2c(-c3cccc(C(F)(F)F)c3)c(Cc3cccc4ccccc34)cc(=O)n21` (centres unmarked) [Compound 042, 4-methyl-8-(naphthalen-1-ylmethyl)-6-oxo-9-(3-(trifluoromethyl)phenyl)-3,4-dihydro-2H,6H-pyrido[1,2-e][1,2,5]thiadiazine-4-carboxylic acid 1,1-dioxide] yielded a remaining activity at 25 µM [5] of 31 to 60%, a remaining activity at 25 µM [6] of 52% and a remaining activity at 100 µM [7] of 11 to 31%. The remaining activity at 100 µM [8] was 18%.

`Cc1c(Cc2cccc3ccccc23)c(-c2cccc(C(F)(F)F)c2)c2n(c1=O)C(C(=O)O)CN(C)S2(=O)=O` (centres unmarked) [Compound 068, 2,7-dimethyl-8-(naphthalen-1-ylmethyl)-6-oxo-9-(3-(trifluoromethyl)phenyl)-3,4-dihydro-2H,6H-pyrido[1,2-e][1,2,5]thiadiazine-4-carboxylic acid 1,1-dioxide] gave a remaining activity at 25 µM [5] of 31 to 60%, a remaining activity at 25 µM [6] of 43% and a remaining activity at 100 µM [7] of 11 to 31%. It also gave a remaining activity at 100 µM [8] of 23%.

`CCc1c(Cc2cccc3ccccc23)c(-c2cccc(C(F)(F)F)c2)c2n(c1=O)C(C(=O)O)CN2Cc1ccc(OC)cc1` (centres unmarked) [Compound 161, 6-ethyl-1-(4-methoxybenzyl)-7-(naphthalen-1-ylmethyl)-5-oxo-8-(3-(trifluoromethyl)phenyl)-1,2,3,5-tetrahydroimidazo[1,2-a]pyridine-3-carboxylic acid] showed a remaining activity at 25 µM [1] of 31 to 60%, a remaining activity at 25 µM [2] of 54% and a remaining activity at 100 µM [3] of 11 to 31%. It also gave a remaining activity at 100 µM [4] of 29%.

Work on `O=C(O)C1CN(Cc2ccccc2)c2c(-c3cccc(Br)c3)c(Cc3cccc4ccccc34)c(Cl)c(=O)n21` (centres unmarked) [Compound 198, 1-benzyl-8-(3-bromophenyl)-6-chloro-7-(naphthalen-1-ylmethyl)-5-oxo-1,2,3,5-tetrahydroimidazo[1,2-a]pyridine-3-carboxylic acid] yielded a remaining activity at 25 µM [1] of over 60%, a remaining activity at 25 µM [2] of 61% and a remaining activity at 100 µM [3] of 31 to 60%. For the same compound, the remaining activity at 100 µM [4] was 39%.

With `Cn1c(=O)c2c(ncn2CCCCCCCN2CC(C(=O)O)n3c(c(-c4cccc(C(F)(F)F)c4)c(Cc4cccc5ccccc45)cc3=O)S2(=O)=O)n(C)c1=O` (centres unmarked) [Compound 036] the remaining activity at 25 µM [5] was over 60% and the remaining activity at 25 µM [6] was 65%.

`CN1CC(C(=O)O)n2c(c(-c3cccc(C(F)(F)F)c3)c(Cc3cccc4ccccc34)c(C(=O)N3CCOCC3)c2=O)S1(=O)=O` (centres unmarked) [Compound 160, 2-methyl-7-(morpholine-4-carbonyl)-8-(naphthalen-1-ylmethyl)-6-oxo-9-(3-(trifluoromethyl)phenyl)-3,4-dihydro-2H,6H-pyrido[1,2-e][1,2,5] thiadiazine-4-carboxylic acid 1,1-dioxide] gave a remaining activity at 25 µM [1] of over 60%, a remaining activity at 25 µM [2] of 101% and a remaining activity at 100 µM [3] of over 60%. It also gave a remaining activity at 100 µM [4] of 116%.

Compound `Cn1c(=O)c2c(nc(CCCCCN3CC(C(=O)O)n4c(c(-c5cccc(C(F)(F)F)c5)c(Cc5cccc6ccccc56)cc4=O)S3(=O)=O)n2C)n(C)c1=O` (centres unmarked) [Compound 045, 8-(naphthalen-1-ylmethyl)-6-oxo-9-(3-(trifluoromethyl)phenyl)-2-(5-(1,3,7-trimethyl-2,6-dioxo-2,3,6,7-tetrahydro-1H-purin-8-yl)pentyl)-3,4-dihydro-2H,6H-pyrido[1,2-e][1,2,5]thiadiazine-4-carboxylic acid 1,1-dioxide] has a remaining activity at 25 µM [5] of 31 to 60%, a remaining activity at 25 µM [6] of 59% and a remaining activity at 100 µM [7] of 31 to 60%. It also gave a remaining activity at 100 µM [8] of 53%.

Work on `O=C(O)C1CN(Cc2ccccc2)c2c(-c3cccc(C(F)(F)F)c3)c(Cc3cccc4ccccc34)c(F)c(=O)n21` (centres unmarked) [Compound 194, 1-benzyl-6-fluoro-7-(naphthalen-1-ylmethyl)-5-oxo-8-(3-(trifluoromethyl)phenyl)-1,2,3,5-tetrahydroimidazo[1,2-a]pyridine-3-carboxylic acid] yielded a remaining activity at 25 µM [1] of over 60%, a remaining activity at 25 µM [2] of 100% and a remaining activity at 100 µM [3] of over 60%. The remaining activity at 100 µM [4] was 67%.

In the case of `O=C(O)C1CN(Cc2ccccc2)c2c(-c3cccc(C(F)(F)F)c3)c(Cc3cccc4ccccc34)cc(=O)n21` (centres unmarked) [Compound 187, 1-benzyl-7-(naphthalen-1-ylmethyl)-5-oxo-8-(3-(trifluoromethyl)phenyl)-1,2,3,5-tetrahydroimidazo[1,2-a]pyridine-3-carboxylic acid], the remaining activity at 25 µM [1] was over 60%, the remaining activity at 25 µM [2] was 69% and the remaining activity at 100 µM [3] was over 60%. For the same compound, the remaining activity at 100 µM [4] was 74%.

Work on `Cn1c(=O)c2c(nc(CCCCN3CC(C(=O)O)n4c(c(-c5cccc(C(F)(F)F)c5)c(Cc5cccc6ccccc56)cc4=O)S3(=O)=O)n2C)n(C)c1=O` (centres unmarked) [Compound 044, 8-(naphthalen-1-ylmethyl)-6-oxo-9-(3-(trifluoromethyl)phenyl)-2-(4-(1,3,7-trimethyl-2,6-dioxo-2,3,6,7-tetrahydro-1H-purin-8-yl)butyl)-3,4-dihydro-2H,6H-pyrido[1,2-e][1,2,5]thiadiazine-4-carboxylic acid 1,1-dioxide] yielded a remaining activity at 25 µM [5] of 31 to 60%, a remaining activity at 25 µM [6] of 55% and a remaining activity at 100 µM [7] of 31 to 60%. For the same compound, the remaining activity at 100 µM [8] was 42%.

`CCCCN1CC(C(=O)O)n2c(c(-c3cccc(C(F)(F)F)c3)c(Cc3cccc4ccccc34)c(C(N)=O)c2=O)S1(=O)=O` (centres unmarked) [Compound 177, 2-butyl-7-carbamoyl-8-(naphthalen-1-ylmethyl)-6-oxo-9-(3-(trifluoromethyl)phenyl)-3,4-dihydro-2H,6H-pyrido[1,2-e][1,2,5]thiadiazine-4-carboxylic acid 1,1-dioxide] gave a remaining activity at 25 µM [1] of 31 to 60%, a remaining activity at 25 µM [2] of 32% and a remaining activity at 100 µM [3] of 11 to 31%. The remaining activity at 100 µM [4] was 21%.

`O=C(O)C1CSc2c(-c3cccc(C(F)(F)F)c3)c(Cc3cccc4ccccc34)c(CO)c(=O)n21` (centres unmarked) [Compound 057, 6-(hydroxymethyl)-7-(naphthalen-1-ylmethyl)-5-oxo-8-(3-(trifluoromethyl)phenyl)-2,3-dihydro-5H-thiazolo[3,2-a]pyridine-3-carboxylic acid] was tested, and the remaining activity at 25 µM [5] was 31 to 60%, the remaining activity at 25 µM [6] was 59% and the remaining activity at 100 µM [7] was 11 to 31%. It also gave a remaining activity at 100 µM [8] of 24%.

`CN(C)C(=O)C1CN(C)S(=O)(=O)c2c(-c3cccc(C(F)(F)F)c3)c(Cc3cccc4ccccc34)cc(=O)n21` (centres unmarked) [Compound 032, N,N-2-trimethyl-8-(naphthalen-1-ylmethyl)-6-oxo-9-(3-(trifluoromethyl)phenyl)-3,4-dihydro-2H,6H-pyrido[1,2-e][1,2,5]thiadiazine-4-carboxamide 1,1-dioxide] was tested, and the remaining activity at 25 µM [5] was over 60% and the remaining activity at 25 µM [6] was 92%.

In the case of `O=C(O)C1CN(Cc2ccc(-c3ccccc3)cc2)c2c(-c3cccc(C(F)(F)F)c3)c(Cc3cccc4ccccc34)c(Cl)c(=O)n21` (centres unmarked) [Compound 202, 1-([1,1′-biphenyl]-4-ylmethyl)-6-chloro-7-(naphthalen-1-ylmethyl)-5-oxo-8-(3-(trifluoromethyl)phenyl)-1,2,3,5-tetrahydroimidazo[1,2-a]pyridine-3-carboxylic acid], the remaining activity at 25 µM [1] was 31 to 60% and the remaining activity at 25 µM [2] was 51%.

`O=C(O)C1CN(Cc2ccccc2)c2c(-c3cccc(C(F)(F)F)c3)c(Cc3cccc4ccccc34)c(Br)c(=O)n21` (centres unmarked) [Compound 003, 1-benzyl-6-bromo-7-(naphthalen-1-ylmethyl)-5-oxo-8-(3-(trifluoromethyl)phenyl)-1,2,3,5-tetrahydroimidazo[1,2-a]pyridine-3-carboxylic acid] gave a remaining activity at 25 µM [1] of 31 to 60%, a remaining activity at 25 µM [2] of 54% and a remaining activity at 100 µM [3] of 11 to 31%. For the same compound, the remaining activity at 100 µM [4] was 16%.
